# Assay results published in ChEMBL document CHEMBL2073956, “ATP-dependent transport of bile salts by rat multidrug resistance-associated protein 3 (Mrp3)” (J Biol Chem, 2000).
# Structures can show the parent of a compound that is named as a salt.
# Experiments:
# Format in all cases: functional, cell membranes, Membrane vesicle
# [1] = target: T1, ATP-binding cassette sub-family C member 3 (Rattus norvegicus, UniProt O88563); experiment: (§1) TP_TRANSPORTER: uptake in membrane vesicles isolated from Mrp3-expressing LLC-PK1 cells; conditions: pig, llc-pk1
# [2] = target: T1, ATP-binding cassette sub-family C member 3; experiment: (§2) TP_TRANSPORTER: uptake in membrane vesicles from LLC-PK1 cells; conditions: pig
# [3] = target: T2, ATP-binding cassette sub-family C member 3 (MRP3) (Rattus norvegicus, UniProt O88563); experiment: TP_TRANSPORTER: inhibition of E217betaG uptake (E217betaG: 0.055 uM, TCDC-S: 50 uM) in membrane vesicles from LLC-PK1 cells; set-up: scale not given: the % may be the effect or the level left; conditions: pig, probe E217betaG, read-out: Activity
# [4] = target: T2, ATP-binding cassette sub-family C member 3 (MRP3); experiment: TP_TRANSPORTER: inhibition of Taurocholate uptake (Taurochorate: 1.2 uM, TCDC-S: 50 uM) in membrane vesicles from LLC-PK1 cells; set-up: scale not given: the % may be the effect or the level left; conditions: pig, probe taurocholate, read-out: Activity
# [5] = target: T3, Mrp3 (ATP-binding cassette sub-family C member 3) (Rattus norvegicus, UniProt O88563); experiment: TP_TRANSPORTER: inhibition of Taurocholate uptake (TCDC-S: 50 uM) in membrane vesicles isolated from Mrp3-expressing LLC-PK1 cells; set-up: scale not given: the % may be the effect or the level left; conditions: pig, probe taurocholate, read-out: Activity
# [6] = target: T1, ATP-binding cassette sub-family C member 3; experiment: TP_TRANSPORTER: inhibition of E217betaG uptake (E217betaG: 0.055 uM, TCDC-S: 50 uM) in membrane vesicles isolated from Mrp3-expressing LLC-PK1 cells; set-up: scale not given: the % may be the effect or the level left; conditions: pig, llc-pk1, 50 µM
# [7] = target: T3, Mrp3 (ATP-binding cassette sub-family C member 3); experiment: as §1; conditions: pig, membrane vesicles from Mrp3-expressing LLC-PK1 cells
# [8] = target: T3, Mrp3 (ATP-binding cassette sub-family C member 3); experiment: TP_TRANSPORTER: inhibition of Taurocholate uptake (Taurochorate: 1.2 uM, TLCAS: 20 uM) in membrane vesicles isolated from Mrp3-expressing LLC-PK1 cells; set-up: scale not given: the % may be the effect or the level left; conditions: pig, probe taurocholate, read-out: Activity
# [9] = target: T2, ATP-binding cassette sub-family C member 3 (MRP3); experiment: TP_TRANSPORTER: inhibition of E217betaG uptake (E217betaG: 0.055 uM, TLC-S: 20 uM) in membrane vesicles from LLC-PK1 cells; set-up: scale not given: the % may be the effect or the level left; conditions: pig, probe E217betaG, read-out: Activity
# [10] = target: T3, Mrp3 (ATP-binding cassette sub-family C member 3); experiment: TP_TRANSPORTER: inhibition of Taurocholate uptake (Taurochorate: 1.2 uM, E217betaG: 200 uM) in membrane vesicles isolated from Mrp3-expressing LLC-PK1 cells; set-up: scale not given: the % may be the effect or the level left; conditions: pig, probe taurocholate, read-out: Activity
# [11] = target: T2, ATP-binding cassette sub-family C member 3 (MRP3); experiment: TP_TRANSPORTER: inhibition of Taurocholate uptake (Taurochorate: 1.2 uM, E217betaG: 75 uM) in membrane vesicles from LLC-PK1 cells; set-up: scale not given: the % may be the effect or the level left; conditions: pig, probe taurocholate, read-out: Activity
# [12] = target: T1, ATP-binding cassette sub-family C member 3; experiment: TP_TRANSPORTER: inhibition of Taurocholate uptake (Taurochorate: 1.2 uM, GC: 50 uM) in membrane vesicles isolated from Mrp3-expressing LLC-PK1 cells; set-up: scale not given: the % may be the effect or the level left; conditions: pig, llc-pk1, 50 µM
# [13] = target: T2, ATP-binding cassette sub-family C member 3 (MRP3); experiment: TP_TRANSPORTER: inhibition of Taurocholate uptake (Taurochorate: 1.2 uM, CA: 500 uM) in membrane vesicles from LLC-PK1 cells; set-up: scale not given: the % may be the effect or the level left; conditions: pig, probe taurocholate, read-out: Activity
# [14] = target: T3, Mrp3 (ATP-binding cassette sub-family C member 3); experiment: TP_TRANSPORTER: inhibition of E217betaG uptake (E217betaG: 0.055 uM, GC: 200 uM) in membrane vesicles isolated from Mrp3-expressing LLC-PK1 cells; set-up: scale not given: the % may be the effect or the level left; conditions: pig, probe E217betaG, read-out: Activity
# [15] = target: T2, ATP-binding cassette sub-family C member 3 (MRP3); experiment: TP_TRANSPORTER: inhibition of E217betaG uptake (E217betaG: 0.055 uM, GC: 200 uM) in membrane vesicles from LLC-PK1 cells; set-up: scale not given: the % may be the effect or the level left; conditions: pig, probe E217betaG, read-out: Activity
# [16] = substrate: [H][C@]12CC[C@]3([H])[C@]([H])(CC[C@]4(C)C([C@H](C)CCC(=O)NCCS(=O)(=O)O)CC[C@@]34[H])[C@@]1(C)CC[C@@H](OS(=O)(=O)O)C2; experiment: as §2
molecule,measurement,setting,value
C[C@H](CCC(=O)NCCS(=O)(=O)O)C1CC[C@H]2[C@@H]3[C@H](O)C[C@@H]4C[C@H](OS(=O)(=O)O)CC[C@]4(C)[C@H]3CC[C@]12C (stereo partly drawn) [TAUROCHENODEOXYCHOLATE SULFATE],Activity,[1],substrate [+]
same,Activity,[2],substrate [+]
same,activity at 50 µM,[3],26.2%
same,activity at 50 µM,[4],27.8%
same,activity at 50 µM,[5],27.8%
same,Activity,[6],26.2%
C[C@H](CCC(=O)NCCS(=O)(=O)O)C1CC[C@H]2[C@@H]3CC[C@@H]4C[C@H](OS(=O)(=O)O)CC[C@]4(C)[C@H]3CC[C@]12C (stereo partly drawn),Km,[7],3.06 µM
same,activity at 20 µM,[8],12.2%
same,activity at 20 µM,[9],15.5%
C[C@]12CC[C@@H]3c4ccc(O)cc4CC[C@H]3[C@@H]1CC[C@@H]2O[C@@H]1O[C@H](C(=O)O)[C@@H](O)[C@H](O)[C@H]1O [ESTRADIOL 17B GLUCURONIDE],activity at 200 µM,[10],78.4%
same,activity at 75 µM,[11],78.4%
C[C@H](CCC(=O)NCC(=O)O)[C@H]1CC[C@H]2[C@@H]3[C@H](O)C[C@@H]4C[C@H](O)CC[C@]4(C)[C@H]3C[C@H](O)[C@]12C [GLYCOCHOLIC ACID],Activity,[1],substrate [+]
same,Activity,[2],substrate [+]
same,Activity,[12],16%
same,activity at 500 µM,[13],0%
same,activity at 200 µM,[14],13.9%
same,activity at 200 µM,[15],13.9%
ATP-binding cassette sub-family C member 3 (Rattus norvegicus) (protein) MDRLCGSGELGSKFWDSNLTVYTNTPDLTPCFQNSLLAWVPCIYLWAALPCYLFYLRHHRLGYIVLSCLSRLKTALGVLLWCISWVDLFYSFHGLVHGSSPAPVFFITPLLVGITMLLATLLIQYERLRGVRSSGVLIIFWLLCVICAIIPFRSKILLALAEGKILDPFRFTTFYIYFALVLCAFILSCFQEKPPLFSPENLDTNPCPEASAGFFSRLSFWWFTKLAILGYRRPLEDSDLWSLSEEDCSHKVVQRLLEAWQKQQTQASGPQTAALEPKIAGEDEVLLKARPKTKKPSFLRALVRTFTSSLLMGACFKLIQDLSPSSTHSCSASSSGLFRPHGPYWWGFLLAGLMFVSSTMQTLILHQHYHCIFVMALRIRTAIIGVIYRKALTITNSVKREYTVGEMVNLMSVDAQRFMDVSPFINLLWSAPLQVILAIYFLWQILGPSALAGVAVIVLLIPLNGAVSMKMKTYQVQQMKFKDSRIKLMSEILNGIKVLKLYAWEPTFLEQVEGIRQGELQLLRKGAYLQAISTFIWVCTPFMVTLITLGVYVCVDKNNVLDAEKAFVSLSLFNILKIPLNLLPQLISGMTQTSVSLKRIQDFLNQDELDPQCVERKTISPGRAITIHNGTFSWSKDLPPTLHSINIQIPKGALVAVVGPVGCGKSSLVSALLGEMEKLEGAVSVKGSVAYVPQQAWIQNCTLQENVLFGQPMNPKRYQQALETCALLADLDVLPGGDQTEIGEKGINLSGGQRQRVSLARAVYSDANIFLLDDPLSAVDSHVAKHIFDQVIGPEGVLAGKTRVLVTHGISFLPQTDFIIVLADGQITEMGHYSELLQHDGSFANFLRNYAPDENQEANEGVLQHANEEVLLLEDTLSTHTDLTDTEPAIYEVRKQFMREMSSLSSEGEGQNRPVLKRYTSSLEKEVPATQTKETGALIKEEIAETGNVKLSVYWDYAKSVGLCTTLFICLLYAGQNAVAIGANVWLSAWTNDVEEHGQQNNTSVRLGVYATLGILQGLLVMLSAFTMVVGAIQAARLLHTALLHNQIRAPQSFFDTTPSGRILNRFSKDIYVIHEVLAPTILMLFNSFYTSISTIVVIVASTPLFCVVVLPLAVFYGFVQRFYVATSRQLKRLESVSRSPIFSHFSETVTGTSVIRAYGRVQDFKVLSDAKVDSNQKTTYPYIASNRWLGVHVEFVGNCVVLFSALFAVIGRNSLNPGLVGLSVSYALQVTLSLNWMIRTLSDLESNIIAVERVKEYSKTETEAPWVLESNRAPEGWPRSGVVEFRNYSVRYRPGLELVLKNLTLHVQGGEKVGIVGRTGAGKSSMTLCLFRILEAAEGEIFIDGLNVAHIGLHDLRSQLTIIPQDPILFSGTLRMNLDPFGRYSDEDIWRTLELSHLSAFVSSQPTGLDFQCSEGGDNLSVGQRQLVCLARALLRKSRVLVLDEATAAIDLETDDLIQGTIRTQFEDCTVLTIAHRLNTIMDYNRVLVLDKGVVAEFDSPVNLIAAGGIFYGMAKDAGLA,Km,[16],3.06 µM
